Test results taken from doi:10.1101/706168v1 (biorxiv, 2019).

Columns and labels:
Test in all cases: cell-based
hERG = hERG (Homo sapiens, UniProt Q12809)
Nav1.5 = Nav1.5 (Homo sapiens, UniProt Q14524)
TRPA1 = TRPA1 (Homo sapiens, UniProt O75762)
TRPC6 = biological target: T1, TRPC6 (Homo sapiens, UniProt Q9Y210)
T1 sequence (Q9Y210 1-931): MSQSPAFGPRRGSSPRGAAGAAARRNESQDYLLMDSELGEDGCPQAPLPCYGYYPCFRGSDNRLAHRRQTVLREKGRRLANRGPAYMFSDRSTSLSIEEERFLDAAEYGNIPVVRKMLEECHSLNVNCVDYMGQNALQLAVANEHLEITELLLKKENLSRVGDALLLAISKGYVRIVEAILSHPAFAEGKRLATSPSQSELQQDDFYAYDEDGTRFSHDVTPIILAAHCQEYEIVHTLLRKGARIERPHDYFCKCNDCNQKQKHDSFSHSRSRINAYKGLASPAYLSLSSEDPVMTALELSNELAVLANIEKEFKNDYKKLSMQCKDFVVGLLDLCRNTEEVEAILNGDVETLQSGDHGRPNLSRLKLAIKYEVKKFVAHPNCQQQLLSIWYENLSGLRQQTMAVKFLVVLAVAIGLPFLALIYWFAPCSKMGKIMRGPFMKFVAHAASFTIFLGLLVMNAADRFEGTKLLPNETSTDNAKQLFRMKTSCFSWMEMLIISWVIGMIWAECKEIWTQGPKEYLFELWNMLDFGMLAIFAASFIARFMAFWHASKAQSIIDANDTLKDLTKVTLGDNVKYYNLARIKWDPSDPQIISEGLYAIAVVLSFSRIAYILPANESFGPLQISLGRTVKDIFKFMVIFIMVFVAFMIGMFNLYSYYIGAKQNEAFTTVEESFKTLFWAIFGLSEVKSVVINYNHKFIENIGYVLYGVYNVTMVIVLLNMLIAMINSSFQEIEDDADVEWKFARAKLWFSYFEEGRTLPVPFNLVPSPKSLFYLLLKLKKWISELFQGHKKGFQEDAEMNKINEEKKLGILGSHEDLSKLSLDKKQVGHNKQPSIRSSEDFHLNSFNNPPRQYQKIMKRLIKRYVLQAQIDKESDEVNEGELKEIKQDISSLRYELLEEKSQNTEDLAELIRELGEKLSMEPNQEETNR

TRPV4 = TRPV4 (Homo sapiens, UniProt Q9HBA0)
KCNQ1 = KCNQ1 (Homo sapiens, UniProt P51787)
Chain of KCNQ1 (P51787 whole entry): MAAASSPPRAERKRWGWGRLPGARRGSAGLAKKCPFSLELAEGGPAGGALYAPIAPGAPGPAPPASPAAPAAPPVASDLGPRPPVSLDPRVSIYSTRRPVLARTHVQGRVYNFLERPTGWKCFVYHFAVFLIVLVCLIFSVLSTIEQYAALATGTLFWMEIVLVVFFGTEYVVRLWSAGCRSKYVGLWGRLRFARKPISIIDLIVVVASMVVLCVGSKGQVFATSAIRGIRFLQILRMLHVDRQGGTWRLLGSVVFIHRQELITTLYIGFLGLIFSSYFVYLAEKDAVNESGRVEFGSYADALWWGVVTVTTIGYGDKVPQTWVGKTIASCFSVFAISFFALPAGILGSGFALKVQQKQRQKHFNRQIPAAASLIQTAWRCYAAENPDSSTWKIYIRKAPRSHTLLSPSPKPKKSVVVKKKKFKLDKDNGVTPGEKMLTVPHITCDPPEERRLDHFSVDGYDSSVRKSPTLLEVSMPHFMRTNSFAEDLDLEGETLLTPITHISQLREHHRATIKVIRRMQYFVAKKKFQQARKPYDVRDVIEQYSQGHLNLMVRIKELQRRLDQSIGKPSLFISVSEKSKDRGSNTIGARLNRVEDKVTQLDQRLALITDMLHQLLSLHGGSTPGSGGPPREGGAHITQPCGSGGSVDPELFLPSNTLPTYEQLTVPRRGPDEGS

Chain of hERG (Q12809 whole entry): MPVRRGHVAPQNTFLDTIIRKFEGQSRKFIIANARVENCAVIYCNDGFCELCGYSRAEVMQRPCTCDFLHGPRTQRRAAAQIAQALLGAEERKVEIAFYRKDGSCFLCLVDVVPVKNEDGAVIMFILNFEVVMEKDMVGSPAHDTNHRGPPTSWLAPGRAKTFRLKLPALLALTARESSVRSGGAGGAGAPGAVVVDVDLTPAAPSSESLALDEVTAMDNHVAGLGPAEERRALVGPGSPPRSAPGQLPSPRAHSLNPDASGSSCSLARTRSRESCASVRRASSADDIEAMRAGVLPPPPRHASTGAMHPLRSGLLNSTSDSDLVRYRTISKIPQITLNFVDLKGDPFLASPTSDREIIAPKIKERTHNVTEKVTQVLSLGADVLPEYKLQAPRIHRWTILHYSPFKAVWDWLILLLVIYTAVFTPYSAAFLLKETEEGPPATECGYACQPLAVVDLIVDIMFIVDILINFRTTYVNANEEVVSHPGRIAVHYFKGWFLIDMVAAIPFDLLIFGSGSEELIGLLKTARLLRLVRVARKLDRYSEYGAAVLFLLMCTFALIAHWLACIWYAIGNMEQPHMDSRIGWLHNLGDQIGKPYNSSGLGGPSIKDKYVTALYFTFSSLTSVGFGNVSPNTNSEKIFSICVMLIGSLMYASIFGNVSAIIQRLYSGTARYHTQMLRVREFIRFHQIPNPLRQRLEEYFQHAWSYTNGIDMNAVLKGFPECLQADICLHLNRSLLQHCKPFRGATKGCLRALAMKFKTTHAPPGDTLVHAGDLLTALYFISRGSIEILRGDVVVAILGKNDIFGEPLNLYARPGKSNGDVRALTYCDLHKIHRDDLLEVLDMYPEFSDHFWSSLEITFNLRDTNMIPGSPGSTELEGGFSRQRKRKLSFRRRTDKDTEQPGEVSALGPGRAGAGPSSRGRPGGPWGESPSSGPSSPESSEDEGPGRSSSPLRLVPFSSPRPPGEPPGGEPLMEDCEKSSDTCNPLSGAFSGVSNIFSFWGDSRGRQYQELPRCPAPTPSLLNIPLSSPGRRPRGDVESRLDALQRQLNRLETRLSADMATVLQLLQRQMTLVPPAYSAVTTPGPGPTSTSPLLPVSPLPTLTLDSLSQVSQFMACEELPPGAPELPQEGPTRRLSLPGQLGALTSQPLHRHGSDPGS
Chain of TRPA1 (O75762 whole entry): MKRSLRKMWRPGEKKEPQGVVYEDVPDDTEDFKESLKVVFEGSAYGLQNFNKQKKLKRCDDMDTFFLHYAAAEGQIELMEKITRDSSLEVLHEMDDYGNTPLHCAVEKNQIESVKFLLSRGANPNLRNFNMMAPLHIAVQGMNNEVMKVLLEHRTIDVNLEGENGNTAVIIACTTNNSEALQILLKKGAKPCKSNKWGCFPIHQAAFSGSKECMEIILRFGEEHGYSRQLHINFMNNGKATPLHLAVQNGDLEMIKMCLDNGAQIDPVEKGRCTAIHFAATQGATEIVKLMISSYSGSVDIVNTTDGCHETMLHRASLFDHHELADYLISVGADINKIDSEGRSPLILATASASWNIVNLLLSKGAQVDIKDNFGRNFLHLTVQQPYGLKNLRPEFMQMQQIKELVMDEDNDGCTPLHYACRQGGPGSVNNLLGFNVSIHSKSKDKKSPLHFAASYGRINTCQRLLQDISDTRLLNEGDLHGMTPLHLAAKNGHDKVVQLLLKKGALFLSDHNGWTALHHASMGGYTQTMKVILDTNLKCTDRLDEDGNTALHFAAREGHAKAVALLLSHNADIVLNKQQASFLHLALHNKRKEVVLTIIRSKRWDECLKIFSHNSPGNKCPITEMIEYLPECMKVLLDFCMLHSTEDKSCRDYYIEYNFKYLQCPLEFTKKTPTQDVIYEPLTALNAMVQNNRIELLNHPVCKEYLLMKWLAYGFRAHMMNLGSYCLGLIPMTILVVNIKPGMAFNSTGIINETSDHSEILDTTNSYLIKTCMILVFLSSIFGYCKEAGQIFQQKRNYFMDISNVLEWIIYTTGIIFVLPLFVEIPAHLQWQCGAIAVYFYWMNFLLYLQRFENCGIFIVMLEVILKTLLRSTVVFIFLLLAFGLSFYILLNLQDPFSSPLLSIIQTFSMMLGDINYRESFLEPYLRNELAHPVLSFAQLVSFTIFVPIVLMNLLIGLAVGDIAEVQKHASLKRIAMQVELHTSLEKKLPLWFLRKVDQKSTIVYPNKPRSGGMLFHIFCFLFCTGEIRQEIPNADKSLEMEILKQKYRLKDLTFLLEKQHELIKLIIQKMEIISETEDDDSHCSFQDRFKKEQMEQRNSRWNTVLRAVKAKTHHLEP
Chain of Nav1.5 (Q14524 whole entry): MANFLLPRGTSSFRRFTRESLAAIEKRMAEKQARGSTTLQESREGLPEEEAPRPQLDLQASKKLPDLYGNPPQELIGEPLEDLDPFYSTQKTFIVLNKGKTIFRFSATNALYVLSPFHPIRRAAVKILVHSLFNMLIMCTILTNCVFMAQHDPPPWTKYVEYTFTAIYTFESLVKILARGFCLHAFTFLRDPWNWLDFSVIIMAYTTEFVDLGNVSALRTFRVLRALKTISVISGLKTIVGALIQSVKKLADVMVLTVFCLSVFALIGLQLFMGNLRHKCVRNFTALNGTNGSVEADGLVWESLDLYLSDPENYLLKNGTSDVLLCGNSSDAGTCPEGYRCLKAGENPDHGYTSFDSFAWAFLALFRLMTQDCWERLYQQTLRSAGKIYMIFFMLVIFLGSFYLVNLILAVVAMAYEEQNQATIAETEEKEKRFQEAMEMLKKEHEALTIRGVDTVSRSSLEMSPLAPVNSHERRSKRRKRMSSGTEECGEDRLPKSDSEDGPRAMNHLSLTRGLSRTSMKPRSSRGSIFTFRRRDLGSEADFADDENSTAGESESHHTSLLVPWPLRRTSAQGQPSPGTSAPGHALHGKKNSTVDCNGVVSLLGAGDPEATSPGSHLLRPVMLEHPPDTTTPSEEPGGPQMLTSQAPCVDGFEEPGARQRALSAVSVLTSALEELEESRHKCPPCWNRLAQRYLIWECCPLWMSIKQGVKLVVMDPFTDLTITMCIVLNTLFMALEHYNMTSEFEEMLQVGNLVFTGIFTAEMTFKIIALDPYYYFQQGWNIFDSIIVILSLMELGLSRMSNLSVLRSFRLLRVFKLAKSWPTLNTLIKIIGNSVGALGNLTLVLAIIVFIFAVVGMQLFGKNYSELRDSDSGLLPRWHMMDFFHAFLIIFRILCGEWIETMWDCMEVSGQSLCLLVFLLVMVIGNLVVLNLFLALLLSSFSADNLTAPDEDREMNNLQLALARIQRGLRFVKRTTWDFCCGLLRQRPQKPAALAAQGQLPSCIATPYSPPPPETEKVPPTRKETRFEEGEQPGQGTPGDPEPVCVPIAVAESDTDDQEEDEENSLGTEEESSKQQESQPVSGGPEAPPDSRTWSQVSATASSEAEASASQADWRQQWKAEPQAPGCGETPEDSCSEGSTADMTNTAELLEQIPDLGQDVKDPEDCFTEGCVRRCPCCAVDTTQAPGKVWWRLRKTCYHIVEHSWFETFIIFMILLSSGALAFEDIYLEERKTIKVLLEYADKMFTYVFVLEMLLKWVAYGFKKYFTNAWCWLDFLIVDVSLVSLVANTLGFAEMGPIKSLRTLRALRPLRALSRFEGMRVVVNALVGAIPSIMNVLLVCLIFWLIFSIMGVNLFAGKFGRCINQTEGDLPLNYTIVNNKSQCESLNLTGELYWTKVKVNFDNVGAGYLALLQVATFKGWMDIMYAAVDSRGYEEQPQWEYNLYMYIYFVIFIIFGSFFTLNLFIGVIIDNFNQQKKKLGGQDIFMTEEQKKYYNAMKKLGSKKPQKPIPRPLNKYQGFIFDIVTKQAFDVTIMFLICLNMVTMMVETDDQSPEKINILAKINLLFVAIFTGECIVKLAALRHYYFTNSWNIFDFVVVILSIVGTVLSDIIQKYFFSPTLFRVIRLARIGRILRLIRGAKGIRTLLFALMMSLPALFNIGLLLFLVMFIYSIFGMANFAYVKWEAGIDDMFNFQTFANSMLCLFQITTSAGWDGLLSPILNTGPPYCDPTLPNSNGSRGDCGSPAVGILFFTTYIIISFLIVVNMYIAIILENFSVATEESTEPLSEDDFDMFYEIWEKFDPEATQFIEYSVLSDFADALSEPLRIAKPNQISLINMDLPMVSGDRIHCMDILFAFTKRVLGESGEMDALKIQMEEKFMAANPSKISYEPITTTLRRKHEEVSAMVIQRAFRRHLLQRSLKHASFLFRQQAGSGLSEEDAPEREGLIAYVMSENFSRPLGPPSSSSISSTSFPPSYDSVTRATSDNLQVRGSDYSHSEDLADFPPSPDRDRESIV

IC50 (TRPA1): > 30 µM
IC50 (TRPC6): > 30 µM
IC50 (TRPV4): > 30 µM
IC50 (KCNQ1): > 30 µM
Compound: O=C(c1ccccc1F)N1CCN(Cc2c(-c3ccc(Br)cc3)nc3ccccn23)CC1 [BAY 1000493, (4-{[2-(4-bromophenyl)imidazo[1,2-a]pyridin-3-yl]methyl}vpiperazin-1-yl)(2-fluorophenyl)methanone]
IC50 (hERG): 2.4 µM
IC50 (Nav1.5): > 30 µM
